Test results from patent US10077284B2, “UBA5 inhibitors” (THE GOVERNING COUNCIL OF THE UNIVERSITY OF TORONTO, priority 2014, dated 2018).
Where two headings read alike, the source gives them in different places.

Target: T1, GST-UBA5 (Homo sapiens, UniProt Q9GZZ9)
T1 construct: made in house
Assay: UBA5 transthiolation assay (UFC1-UFM1 conjugate formation)
Type: biochemical
Conditions: for inhibition at 0.1 µM: [Ligand] 0.1 μM; for inhibition at 0.1 µM / inhibition at 1 µM / inhibition at 5 µM / inhibition at 10 µM / inhibition at 50 µM / inhibition at 100 µM: n = 1; for inhibition at 1 µM: [Ligand] 1 μM; for inhibition at 5 µM: [Ligand] 5 μM; for inhibition at 10 µM: [Ligand] 10 μM; for inhibition at 50 µM: [Ligand] 50 μM; for inhibition at 100 µM: [Ligand] 100 μM; for IC50: read-out: IC50

[1] = Table 3, n = 3, tested 0.1-100 μM
[2] = Table 1, transthiolation enzymatic assay

T1 sequence (Q9GZZ9 whole entry): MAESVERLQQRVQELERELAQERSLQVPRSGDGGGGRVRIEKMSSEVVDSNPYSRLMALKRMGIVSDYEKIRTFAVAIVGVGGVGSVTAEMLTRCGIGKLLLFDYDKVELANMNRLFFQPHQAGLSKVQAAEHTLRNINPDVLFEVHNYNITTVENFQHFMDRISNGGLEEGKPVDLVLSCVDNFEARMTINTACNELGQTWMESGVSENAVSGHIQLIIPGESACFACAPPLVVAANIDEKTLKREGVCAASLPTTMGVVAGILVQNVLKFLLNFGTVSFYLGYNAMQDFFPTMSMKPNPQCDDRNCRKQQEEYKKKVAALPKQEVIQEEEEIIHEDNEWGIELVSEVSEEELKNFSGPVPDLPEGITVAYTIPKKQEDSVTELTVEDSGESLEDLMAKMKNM
Description: Initial rates were recorded over 30 second time intervals from 0 to 2.5 min (normal kinetics) or 0 to 5 min (inhibition kinetics). Reactions were initiated by the addition of ATP and stopped using 4× Laemmli sample buffer (BioRad). The generated protein conjugates were separated on a 10% non-degenerating SDS-polyacrylamide gel (4-15% gels were used for the UAE transthiolaton assay), followed by Western blot analysis, with the exception of GST-UBA5 where protein bands were detected using Coomassie™ Brilliant Blue R-250 staining or Stain-Free gel imaging for the enzymatic assays (Bio-Rad). Transfers for the UAE and NAE immunoblots were performed using nitrocellulose membranes and blocking and blotting was performed as described above with cellular protein extracts. The His6-tagged Ub-UBCH6 complex was detected using an anti-His mouse monoclonal primary antibody (1:500, abcam). A rabbit anti-NEDD8 polyclonal primary antibody (1:500, BostonBiochem) was used for the detection of the E2-NEDD8 complexes. […] Inhibitory data was fit to a dose-response curve (Y=Bottom+(Top−Bottom)/(1+10^(X-Log IC50))) using GraphPad Prism 6.

Nc1ncnc2c1ncn2[C@@H]1O[C@H](C(=O)NCCCC(=O)N2CCNCCNCCNCC2)[C@@H](O)[C@H]1O [Compound 1.3, (2S,3S,4R,5R)-5-(6-amino-9H-purin-9-yl)-3,4-dihydroxy-N-(4-oxo-4-(1,4,7,10-tetraazacyclododecan-1-yl)butyl)tetrahydrofuran-2-carboxamide]
inhibition at 0.1 µM: 24%
inhibition at 1 µM: 10%
inhibition at 5 µM: 17%
inhibition at 10 µM: 28%
inhibition at 50 µM: 11%
inhibition at 100 µM: 0%

(2S,3S,4R,5R)-5-(6-amino-9H-purin-9-yl)-3,4-dihydroxy-N-(2-oxo-2-(1,4,8,11-tetraazacyclotetradecan-1-yl)ethyl)tetrahydrofuran-2-carboxamide, copper(II) trifluoromethanesulfonate [Compound 1.1.Cy.Cu]
IC50 (Table 4, n = 3): 45.4 µM

(2S,3S,4R,5R)-5-(6-amino-9H-purin-9-yl)-3,4-dihydroxy-N-(3-oxo-3-(1,4,7,10-tetraazacyclododecan-1-yl)propyl)tetrahydrofuran-2-carboxamide, copper(II) trifluromethanesulfonate [Compound 1.2.Cu]
IC50 [1]: 39.6 µM

Nc1ncnc2c1ncn2[C@@H]1O[C@H](C(=O)NCCCCC(=O)N2CCNCCNCCNCC2)[C@@H](O)[C@H]1O.[Zn+2] [Compound 1.4.Zn, (2S,3S,4R,5R)-5-(6-amino-9H-purin-9-yl)-3,4-dihydroxy-N-(5-oxo-5-(1,4,7,10-tetraazacyclododecan-1-yl)pentyl)tetrahydrofuran-2-carboxamide zinc (II) trifluoromethanesulfonate]
IC50 [2]: 5.2 µM

Nc1ncnc2c1ncn2[C@@H]1O[C@H](C(=O)NCCN2CCCNCCNCCCNCC2)[C@@H](O)[C@H]1O.[Zn+2] [Compound 1.1.A.Cy.Zn, (2S,3S,4R,5R)—N-(2-(1,4,8,11-tetraazacyclotetradecan-1-yl)ethyl)-5-(6-amino-9H-purin-9-yl)-3,4-dihydroxytetrahydrofuran-2-carboxamide, zinc(II) trifluoromethanesulfonate]
IC50 (Table 5, n = 3): 20 µM

Nc1ncnc2c1ncn2[C@@H]1O[C@H](C(=O)NCCCCCC(=O)N2CCNCCNCCNCC2)[C@@H](O)[C@H]1O.O=S(=O)([O-])C(F)(F)F.O=S(=O)([O-])C(F)(F)F.[Cu+2] [Compound 1.5.Cu, (2S,3S,4R,5R)—N-(6-(1,4,7,10-tetraazacyclododecan-1-yl)-6-oxohexyl)-5-(6-amino-9H-purin-9-yl)-3,4-dihydroxytetrahydrofuran-2-carboxamide copper (II) trifluoromethanesulfonate]
IC50 [1]: > 100 µM

(2S,3S,4R,5R)-5-(6-amino-9H-purin-9-yl)-3,4-dihydroxy-N-(2-oxo-2-(1,4,7,10-tetraazacyclododecan-1-yl)ethyl)tetrahydrofuran-2-carboxamide zinc (II) trifluromethanesulfonate [Compound 1.1.Zn]
IC50 [2]: 10.5 µM
IC50 (Table 5, n = 3): 10.5 µM

(2S,3S,4R,5R)-5-(6-(((S)-2,3-dihydro-1H-inden-1-yl)amino)-9H-purin-9-yl)-3,4-dihydroxy-N-(6-oxo-6-(1,4,7,10-tetraazacyclododecan-1-yl)hexyl)tetrahydrofuran-2-carboxamide, copper(II) trifluoromethanesulfonate [Compound 1.5.An6.Cu]
IC50 (Table 6, n = 3): 12.5 µM

Nc1ncnc2c1ncn2[C@@H]1O[C@H](C(=O)NCCC(=O)N2CCNCCNCCNCC2)[C@@H](O)[C@H]1O.[Zn+2] [Compound 1.2.Zn, (2S,3S,4R,5R)-5-(6-amino-9H-purin-9-yl)-3,4-dihydroxy-N-(3-oxo-3-(1,4,7,10-tetraazacyclododecan-1-yl)propyl)tetrahydrofuran-2-carboxamide zinc (II) trifluoromethanesulfonate]
IC50 [2]: 8.9 µM

Nc1ncnc2c1ncn2[C@@H]1O[C@H](C(=O)NCCCCCCN2CCNCCNCCNCC2)[C@@H](O)[C@H]1O.[Zn+2] [Compound 1.5.A.Zn, (2S,3S,4R,5R)—N-(6-(1,4,7,10-tetraazacyclododecan-1-yl)hexyl)-5-(6-amino-9H-purin-9-yl)-3,4-dihydroxytetrahydrofuran-2-carboxamide, zinc(II) trifluromethanesulfonate]
IC50 (Table 5, n = 3): 38.2 µM

O=C(NCCCCCC(=O)N1CCNCCNCCNCC1)[C@H]1O[C@@H](n2cnc3c(N[C@H]4CCc5ccccc54)ncnc32)[C@H](O)[C@@H]1O.[Zn+2] [Compound 1.5.An6.Zn, (2S,3S,4R,5R)-5-(6-(((S)-2,3-dihydro-1H-inden-1-yl)amino)-9H-purin-9-yl)-3,4-dihydroxy-N-(6-oxo-6-(1,4,7,10-tetraazacyclododecan-1-yl)hexyl)tetrahydrofuran-2-carboxamide, zinc(II) trifluoromethanesulfate]
IC50 (Table 6, n = 3): 13.6 µM

(2S,3S,4R,5R)-5-(6-amino-9H-purin-9-yl)-3,4-dihydroxy-N-(5-oxo-5-(1,4,7,10-tetraazacyclododecan-1-yl)pentyl)tetrahydrofuran-2-carboxamide, copper(II) trifluoromethanesulfonate [Compound 1.4.Cu]
IC50 [1]: 38.8 µM

(2S,3S,4R,5R)-5-(6-amino-9H-purin-9-yl)-3,4-dihydroxy-N-(2-oxo-2-(1,4,7,10-tetraazacyclododecan-1-yl)ethyl)tetrahydrofuran-2-carboxamide, copper(II) trifluromethanesulfonate [Compound 1.1.Cu]
IC50 [1]: > 100 µM

(2S,3S,4R,5R)—N-(2-(1,4,7,10-tetraazacyclododecan-1-yl)ethyl)-5-(6-amino-9H-purin-9-yl)-3,4-dihydroxytetrahydrofuran-2-carboxamide, copper(II) trifluromethanesulfonate [Compound 1.1.A.Cu]
IC50 (Table 5, n = 3): 21.1 µM

Nc1ncnc2c1ncn2[C@@H]1O[C@H](C(=O)NCCN2CCNCCNCCNCC2)[C@@H](O)[C@H]1O.[Zn+2] [Compound 1.1.A.Zn, (2S,3S,4R,5R)—N-(2-(1,4,7,10-tetraazacyclododecan-1-yl)ethyl)-5-(6-amino-9H-purin-9-yl)-3,4-dihydroxytetrahydrofuran-2-carboxamide, zinc(II) trifluoromethanesulfonate]
IC50 (Table 5, n = 3): 7.61 µM

Nc1ncnc2c1ncn2[C@@H]1O[C@H](C(=O)NCC(=O)N2CCCNCCNCCCNCC2)[C@@H](O)[C@H]1O.[Zn+2] [Compound 1.1.Cy.Zn, (2S,3S,4R,5R)-5-(6-amino-9H-purin-9-yl)-3,4-dihydroxy-N-(2-oxo-2-(1,4,8,11-tetraazacyclotetradecan-1-yl)ethyl)tetrahydrofuran-2-carboxamide, zinc(II) trifluromethanesulfonate]
IC50 (Table 4, n = 3): 4.24 µM

Nc1ncnc2c1ncn2[C@@H]1O[C@H](C(=O)NCCCC(=O)N2CCNCCNCCNCC2)[C@@H](O)[C@H]1O.[Zn+2] [Compound 1.3.Zn, (2S,3S,4R,5R)-5-(6-amino-9H-purin-9-yl)-3,4-dihydroxy-N-(4-oxo-4-(1,4,7,10-tetraazacyclododecan-1-yl)butyl)tetrahydrofuran-2-carboxamide zinc (II) trifluoromethanesulfonate]
IC50 [2]: 23.3 µM

(2S,3S,4R,5R)-5-(6-amino-9H-purin-9-yl)-3,4-dihydroxy-N-(4-oxo-4-(1,4,7,10-tetraazacyclododecan-1-yl)butyl)tetrahydrofuran-2-carboxamide, copper(II) trifluromethanesulfonate [Compound 1.3.Cu]
IC50 [1]: > 100 µM

Nc1ncnc2c1ncn2[C@@H]1O[C@H](C(=O)NCC(=O)N2CCNCCNCCNCC2)[C@@H](O)[C@H]1O [Compound 1.1, (2S,3S,4R,5R)-5-(6-amino-9H-purin-9-yl)-3,4-dihydroxy-N-(2-oxo-2-(1,4,7,10-tetraazacyclododecan-1-yl)ethyl)tetrahydrofuran-2-carboxamide]
inhibition at 0.1 µM: 0%
inhibition at 1 µM: 25%
inhibition at 5 µM: 41%
inhibition at 10 µM: 31%
inhibition at 50 µM: 4%
inhibition at 100 µM: 26%

C1CNCCNCCNCCN1.[Zn+2] [zinc(II) cyclen complex, reference compound]
effect on the transthiolation reaction (at 100 μM): able to impede the transthiolation reaction

(2S,3S,4R,5R)—N-(6-(1,4,7,10-tetraazacyclododecan-1-yl)hexyl)-5-(6-amino-9H-purin-9-yl)-3,4-dihydroxytetrahydrofuran-2-carboxamide, copper(II) trifluromethanesulfonate [Compound 1.5.A.Cu]
IC50 (Table 5, n = 3): > 100 µM
